Reference: patent US20230105212A1, “BIPHENYL DERIVATIVE INHIBITOR, PREPARATION METHOD THEREFOR AND USE THEREOF” (SHANGHAI HANSOH BIOMEDICAL CO., LTD., priority 2020, published 2023)
Like-named read-outs stand apart in the source and are kept apart here.

How the values were obtained:
human PD-1/PD-L1 binding = molecular target: T1, human PD-1/PD-L1 binding (Homo sapiens, UniProt Q9NZQ7); test: Inhibition of human PD-1/PD-L1 binding (TR-FRET/HTRF); settings: TR-FRET, PD-L1-His and PD-1-Fc; read-out: PD-1/PD-L1 binding IC50
T1 construct: PD-L1-His protein (19 to 238 amino acids) (Abcam #ab167713); purchased Abcam (PD-L1-His); R&D (PD-1-Fc) ab167713; 1086-PD
T1 sequence (Q9NZQ7 19-238): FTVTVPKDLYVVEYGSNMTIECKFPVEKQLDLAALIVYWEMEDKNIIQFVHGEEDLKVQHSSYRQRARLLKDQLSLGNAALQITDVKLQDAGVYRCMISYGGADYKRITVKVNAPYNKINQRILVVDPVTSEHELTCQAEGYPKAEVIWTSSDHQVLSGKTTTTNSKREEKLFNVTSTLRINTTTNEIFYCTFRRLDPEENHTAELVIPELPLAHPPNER
How it was run: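 PD-L1-His (aa 19–238, diluted to 10 nM) and PD-1-Fc (aa 25–167, diluted to 20 nM) incubated with compounds (10 μM or 1 μM top, 3-fold, 11 doses) 60 min at room temperature, then anti-6HIS Eu cryptate/anti-human IgG-XL665 added for 3 h RT or overnight 4 °C. HTRF 665/620 nm ratio gave inhibition and IC50.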

human PD-L1 protein = molecular target: T2, human PD-L1 protein (Homo sapiens, UniProt Q9NZQ7); test: Thermal shift: melting temperature of PD-L1 protein; assay type: binding; settings: read-out: ΔTm (° C.)
T2 construct: purchased Acro Biosystems PD1-H5229
T2 sequence (Q9NZQ7 19-238 limits assumed): as the sequence (Q9NZQ7 19-238) above
How it was run: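 Human PD-L1 at 2 μM final was tested in […], 150 mM NaCl with SYPRO Orange, heated 25→95 °C at 0.03 °C/s in a PCR melt-curve run. Tm was taken per treatment; ΔTm is the shift relative to DMSO vehicle.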

[1] = molecular target: T3, PD-L1 protein on the surface of MC38-hPDL1 tumor cells (Homo sapiens, UniProt Q9NZQ7); test: Induction of endocytosis of PD-L1 on the surface of tumor cells (flow cytometry); assay type: cell-based; settings: 16 hours incubation; for Emax: MC38-hPDL1 cells, read-out: MC38 maximum endocytosis rate; for IC50: inducing endocytosis of PD-L1, MC38-hPDL1 cells, read-out: MC38 IC50
T3 construct: expressed in transfected cells; host or cells: MC38-hPDL1 (mouse colon cancer cells)
T3 sequence (Q9NZQ7 19-290): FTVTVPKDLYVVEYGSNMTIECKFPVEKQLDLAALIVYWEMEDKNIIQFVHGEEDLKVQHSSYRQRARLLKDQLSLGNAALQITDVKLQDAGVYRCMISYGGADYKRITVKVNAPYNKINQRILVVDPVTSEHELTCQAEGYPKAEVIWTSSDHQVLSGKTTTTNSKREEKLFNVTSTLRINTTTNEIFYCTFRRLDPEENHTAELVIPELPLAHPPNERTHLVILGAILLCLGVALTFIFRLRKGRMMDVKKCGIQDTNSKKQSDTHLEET
How it was run: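 IC50 comes from nonlinear fits of endocytosis rate, calculated from the loss of surface PE-anti-CD274 flow signal relative to vehicle. Cells were MC38 mouse colon cancer cells engineered to express high human PD-L1. Compound exposure lasted 16 h at 37 °C, 5% CO2.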

[2] = compound 10 μM, PD-L1 protein 2 μM, Tm minus DMSO vehicle control

Compound	IC50 (human PD-1/PD-L1 binding) [nM]	Emax [1] [%]	ΔTm at 10 µM (human PD-L1 protein; [2]) [°C]	IC50 [1] [nM]	ΔTm at 10 µM (human PD-L1 protein) [°C]
COc1nc(-c2cccc(-c3cccc(NC(=O)c4nc5c(n4C)CCN(C)C5)c3Cl)c2Cl)ccc1CN1CC[C@H]1C(=O)O [Embodiment 171, (S)-1-((6-(2,2′-Dichloro-3′-(1,5-dimethyl-4,5,6,7-tetrahydro-1H-imidazo[4,5-c]pyridine-2-carboxamido)-[1,1′-biphenyl]-3-yl)-2-methoxypyridin-3-yl)methyl)azetidine-2-carboxylic acid]	0.9	93	–	–	10.3
COc1nc(-c2cccc(-c3cccc(NC(=O)c4nc5c(n4C)CCN(C)C5)c3Cl)c2Cl)ccc1CN1CC[C@H]1CO [Embodiment 172, (S)—N-(2,2′-Dichloro-3′-(5-((2-(hydroxymethyl)azetidin-1-yl)methyl)-6-methoxypyridin-2-yl)-[1,1′-biphenyl]-3-yl)-1,5-dimethyl-4,5,6,7-tetrahydro-1H-imidazo[4,5-c]pyridine-2-carboxamide]	6.3	94	–	–	13.9
COc1nc(-c2cccc(-c3cccc(NC(=O)c4nc5c(n4C)CCN(C)C5)c3Cl)c2Cl)ccc1CNC1CN(C(C)=O)C1 [Embodiment 179, N-(3′-(5-(((1-Acetylazetidin-3-yl)amino)methyl)-6-methoxypyridin-2-yl)-2,2′-dichloro-[1,1′-biphenyl]-3-yl)-1,5-dimethyl-4,5,6,7-tetrahydro-1H-imidazo[4,5-c]pyridine-2-carboxamide]	7.9	96	12.3	–	–
COc1nc(-c2cccc(-c3cccc(NC(=O)c4nc5c(n4C)CCN(C)C5)c3Cl)c2Cl)ccc1CN1CC2(CC(O)C2)C1 [Embodiment 185, N-(2,2′-Dichloro-3′-(5-((6-hydroxy-2-azaspiro[3.3]heptan-2-yl)methyl)-6-methoxypyridin-2-yl)-[1,1′-biphenyl]-3-yl)-1,5-dimethyl-4,5,6,7-tetrahydro-1H-imidazo[4,5-c]pyridine-2-carboxamide]	5.3	97	20.9	0.7	–
COc1nc(-c2cccc(-c3cccc(NC(=O)c4nc5c(n4C)CCN(C)C5)c3Cl)c2Cl)ccc1CN1CC2(C1)CN(C(=O)C(F)F)C2 [Embodiment 190, N-(2,2′-Dichloro-3′-(5-((6-(2,2-difluoroacetyl)-2,6-diazaspiro[3.3]heptan-2-yl)methyl)-6-methoxypyridin-2-yl)-[1,1′-biphenyl]-3-yl)-1,5-dimethyl-4,5,6,7-tetrahydro-1H-imidazo[4,5-c]pyridine-2-carboxamide]	8.5	97	14	0.8	–
COc1nc(-c2cccc(-c3cccc(NC(=O)c4nc5c(n4C)CCN(C)C5)c3Cl)c2Cl)ccc1CN1CC2(C1)CN(C(=O)CC#N)C2 [Embodiment 191, N-(2,2′-Dichloro-3′-(5-((6-(2-cyanoacetyl)-2,6-diazaspiro[3.3]heptan-2-yl)methyl)-6-methoxypyridin-2-yl)-[1,1′-biphenyl]-3-yl)-1,5-dimethyl-4,5,6,7-tetrahydro-1H-imidazo[4,5-c]pyridine-2-carboxamide]	4.8	97	11.7	–	–
COc1nc(-c2cccc(-c3cccc(NC(=O)c4nc5c(n4C)CCN(C)C5)c3Cl)c2Cl)ccc1CN1CC2(CCN(C(C)=O)CC2)C1 [Embodiment 194, N-(3′-(5-((7-Acetyl-2,7-diazaspiro[3.5]nonan-2-yl)methyl)-6-methoxypyridin-2-yl)-2,2′-dichloro-[1,1′-biphenyl]-3-yl)-1,5-dimethyl-4,5,6,7-tetrahydro-1H-imidazo[4,5-c]pyridine-2-carboxamide]	7.9	96	13.2	–	–
COc1nc(-c2cccc(-c3cccc(NC(=O)c4nc5c(n4C)CCN(C)C5)c3Cl)c2Cl)ccc1CN1CCN(C(=O)CC#N)CC1 [Embodiment 198, N-(2,2′-Dichloro-3′-(5-((4-(2-cyanoacetyl)piperazin-1-yl)methyl)-6-methoxypyridin-2-yl)-[1,1′-biphenyl]-3-yl)-1,5-dimethyl-4,5,6,7-tetrahydro-1H-imidazo[4,5-c]pyridine-2-carboxamide]	9.6	94	12	–	–
COc1nc(-c2cccc(-c3cccc(NC(=O)c4nc5c(n4C)CCN(C)C5)c3Cl)c2Cl)ccc1CN1C[C@@H]2C[C@H]1CN2C(C)=O [Embodiment 205, N-(3′-(5-(((1S,4S)-5-Acetyl-2,5-diazabicyclo[2.2.1]heptan-2-yl)methyl)-6-methoxypyridin-2-yl)-2,2′-dichloro-[1,1′-biphenyl]-3-yl)-1,5-dimethyl-4,5,6,7-tetrahydro-1H-imidazo[4,5-c]pyridine-2-carboxamide]	8.8	96	13.3	–	–
COc1nc(-c2cccc(-c3cccc(NC(=O)c4nc5c(n4C)CCN(C)C5)c3Cl)c2Cl)ccc1CN1C2CC1CN(C(C)=O)C2 [Embodiment 209, N-(3′-(5-((3-Acetyl-3,6-diazabicyclo[3.1.1]heptan-6-yl)methyl)-6-methoxypyridin-2-yl)-2,2′-dichloro-[1,1′-biphenyl]-3-yl)-1,5-dimethyl-4,5,6,7-tetrahydro-1H-imidazo[4,5-c]pyridine-2-carboxamide]	7.1	90	10.7	–	–
COc1nc(-c2cccc(-c3cccc(NC(=O)c4nc5c(n4C)CCN(C)C5)c3Cl)c2Cl)ccc1CNC1CCOCC1C(=O)O (centres unmarked) [Embodiment 214, 4-(((6-(2,2′-Dichloro-3′-(1,5-dimethyl-4,5,6,7-tetrahydro-1H-imidazo[4,5-c]pyridin-2-carboxamido)-[1,1′-biphenyl]-3-yl)-2-methoxypyridin-3-yl)methyl)amino)tetrahydro-2H-pyran-3-carboxylic Acid]	5.3	93	10.2	–	–

Continued, in another order:

IC50 (human PD-1/PD-L1 binding) [nM]	Emax [1] [%]	ΔTm at 10 µM (human PD-L1 protein; [2]) [°C]	IC50 [1] [nM]	Compound	ΔTm at 10 µM (human PD-L1 protein) [°C]
3.2	95	12	–	COc1nc(-c2cccc(-c3cccc(NC(=O)c4nc5c(n4C)CCN(C)C5)c3Cl)c2Cl)ncc1CNCCO [Embodiment 229, N-(2,2′-Dichloro-3′-(5-(((2-hydroxyethyl)amino)methyl)-4-methoxypyrimidin-2-yl)-[1,1′-biphenyl]-3-yl)-1,5-dimethyl-4,5,6,7-tetrahydro-1H-imidazo[4,5-c]pyridine-2-carboxamide]	–
1.8	95	11.3	–	COc1nc(-c2cccc(-c3cccc(NC(=O)c4nc5c(n4C)CCN(C)C5)c3Cl)c2Cl)ccc1CN1CCCC[C@H]1C(=O)O [Embodiment 230, (S)-1-((6-(2,2′-Dichloro-3′-(1,5-dimethyl-4,5,6,7-tetrahydro-1H-imidazo[4,5-c]pyridine-2-carboxamido)-[1,1′-biphenyl]-3-yl)-2-methoxypyridin-3-yl)methyl)piperidine-2-carboxylic Acid]	–
1.7	94	11.1	–	COc1nc(-c2cccc(-c3cccc(NC(=O)c4nc5c(n4C)CCN(C)C5)c3Cl)c2Cl)ccc1CN[C@@H](CO)C(=O)O [Embodiment 232, ((6-(2,2′-Dichloro-3′-(1,5-dimethyl-4,5,6,7-tetrahydro-1H-imidazo[4,5-c]pyridine-2-carboxamido)-[1,1′-biphenyl]-3-yl)-2-methoxypyridin-3-yl)methyl)-L-serine]	–
5.2	94	11.6	–	CCn1c(C(=O)Nc2cccc(-c3cccc(-c4ccc(CN5CC6(COC6)C5)c(OC)n4)c3Cl)c2Cl)nc2c1CCN(C)C2 [Embodiment 237, N-(3′-(5-((2-Oxa-6-azaspiro[3.3]heptan-6-yl)methyl)-6-methoxypyridin-2-yl)-2,2′-dichloro-[1,1′-biphenyl]-3-yl)-1-ethyl-5-methyl-4,5,6,7-tetrahydro-1H-imidazo[4,5-c]pyridine-2-carboxamide]	–
4.1	95	10.8	–	CCn1c(C(=O)Nc2cccc(-c3cccc(-c4ccc(CN5CC6(C5)CN(C(C)=O)C6)c(OC)n4)c3Cl)c2Cl)nc2c1CCN(C)C2 [Embodiment 238, N-(3′-(5-((6-Acetyl-2,6-diazaspiro[3.3]heptan-2-yl)methyl)-6-methoxypyridin-2-yl)-2,2′-dichloro-[1,1′-biphenyl]-3-yl)-1-ethyl-5-methyl-4,5,6,7-tetrahydro-1H-imidazo[4,5-c]pyridine-2-carboxamide]	–
4.9	95	11.9	–	CCn1c(C(=O)Nc2cccc(-c3cccc(-c4ccc(CN5CC(CO)C5)c(OC)n4)c3Cl)c2Cl)nc2c1CCN(C)C2 [Embodiment 239, N-(2,2′-Dichloro-3′-(5-((3-(hydroxymethyl)azetidin-1-yl)methyl)-6-methoxypyridin-2-yl)-[1,1′-biphenyl]-3-yl)-1-ethyl-5-methyl-4,5,6,7-tetrahydro-1H-imidazo[4,5-c]pyridine-2-carboxamide]	–
